Experimental data: patent EP0565593B1, “REDUCING PESTICIDAL INTERACTIONS IN CROPS” (priority 1990, dated 1992)

Assays:
VELE (velvetleaf) = assay: Greenhouse test Procedure II (Example 4; Table 4); format: in vivo, Abutilon theophrasti; conditions: 3 weeks
How it was run: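 Herbicide, insecticide and antidote in acetone were track-sprayed sequentially onto a soil cover layer, incorporated and spread over seeded beds in silt loam. Initial overhead irrigation equal to 0.6 cm rainfall, then sub-irrigation in the greenhouse. Injury was rated 3 weeks after treatment against untreated and herbicide-only controls.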

Corn = assay: Field trials, PPI, PRE and POE herbicide applications with terbufos (Example 7); format: in vivo; conditions: mean of five locations, soil-applied insecticide prior to planting
Description: This example summarizes the results of one series of field trials from a plurality of locations and soil types wherein test chemicals were applied in various modes including pre-plant incorporated (PPI), post emergence (POE) and preemergence (PRE) with and without a safener (antidote). Test Chemicals were Herbicide Nos 1, 2, 3 and 7-9; Insecticide No. 1 and Antidote No. 1.
In these trials Insecticide No. 1 (terbufos) was T-banded or furrow applied at labeled rates prior to planting corn. PPI herbicide treatments were applied prior to insecticide applications; PRE treatments were applied after the insecticide application either prior to or after seeding the corn. POE herbicide applications were made at 2 corn-growth stages, i.e., early post (EP) at the 2-3 leaf stage and late post (LP) at the 4-7 leaf stage. Plots were small plot with 3 replications in a randomized complete block design. In the PRE and PPI herbicide treatments, Antidote No. 1 was applied as a tankmix in both treatments. In the POE herbicide treatments, that antidote was applied as a tank mix with the herbicide at the EP and LP stages.

COC(=O)c1c(Cl)nn(C)c1S(=O)(=O)NC(=O)Nc1nc(OC)cc(OC)n1 [Herbicide No. 1, N-[(4,6-dimethoxypyrimidin-2-yl)aminocarbonyl]-3-chloro-4-methoxycarbonyl-5-sulfonamide, reference compound]
% Injury VELE (VELE (velvetleaf); Herbicide 1 0.07 kg/Ha): 20%
% Injury VELE (VELE (velvetleaf); Herbicide 1 0.14 kg/Ha): 67%
% Injury VELE (VELE (velvetleaf); Insecticide 2 3.36 + Herbicide 1 0.07 kg/Ha): 10%
% Injury VELE (VELE (velvetleaf); Insecticide 2 3.36 + Herbicide 1 0.14 kg/Ha): 20%
interaction with Insecticide No. 1 after POE herbicide (Corn): insignificant interaction
